{"source": "patent US20070292403A1", "about": "“Methods of treating a neurological disorder with creatine monohydrate” (priority 2006, published 2007)", "key": {"[1]": {"experiment": "Example 1: serum creatine levels and brain creatine by magnetic resonance spectroscopy", "format": "in vivo, human", "details": "for Increase in absolute creatine concentration by MRS: by week 16, 8 g/day, p<0.05, returned to baseline at week 24", "text": "Study protocol. Subjects were screened within 25 days of randomization (baseline visit). Screening included assessment of eligibility criteria, medical history, physical examination, Unified Huntington's Disease Rating Scale (UHDRS), EKG, DNA analysis, complete blood count, chemistry panel, and urinalysis. Subjects were on study drug (creatine or placebo) for 16 weeks, followed by an 8-week washout. Study visits occurred at baseline, weeks 8, 16, and 24 with telephone contacts at weeks 1, 10 and 20. Physical examination was done at screening and week 16. UHDRS scores, vital signs, adverse event assessment, and safety laboratory tests were repeated at all visits. Blood was collected for serum creatine levels and serum 8-hydroxy-2′-deoxyguanosine (8OH2′dG), a measure of oxidative injury affecting DNA. The later was analyzed in the samples from two sites. Magnetic resonance spectroscopy (MRS; STEAM; TR/TE=6000/20 milliseconds) of frontal cortex (voxel size=56 cc) and occipital cortex (voxel size=18 cc) performed at one site was analyzed for this report. Subject compliance was assessed by wafer counts."}, "[2]": {"tested_on": "subjects with early Parkinson's disease (PD)", "experiment": "Example 2: randomized double-blind futility trial, change in total UPDRS", "format": "in vivo, human", "method": "Study Design and Randomization. This example was a single arm futility study designed to assess creatine and minocycline. A placebo arm for calibration was included in the example. Eligible subjects were randomly assigned in a 1:1:1 fashion to receive 1) 10 g/day of creatine monohydrate and placebo minocycline, 2) placebo creatine monohydrate and 200 mg/day of minocycline, or 3) placebo creatine monohydrate and placebo minocycline. The primary futility analysis was at 12 months of follow-up, but each subject was followed for 18 months for additional safety information. Subjects and investigators were kept blinded to treatment group.\nParticipants. […] Two of the three cardinal manifestations of PD (tremor, rigidity, and bradykinesia) were required; these findings had to be asymmetric. The diagnosis of PD must have been made within 5 years of randomization. Women of childbearing potential were required to use adequate birth control and have a negative pregnancy test at baseline. Subjects were excluded if they had any secondary causes of parkinsonism, such as drug induced parkinsonism or structural lesions; had atypical parkinsonian syndromes; gait freezing or impairment in postural reflexes; had prior stereotaxis surgery for PD; used creatine, minocycline, or any investigational agent within 90 days prior to randomization; had known hypersensitivity to creatine or minocycline; used CoQ10 in doses greater than 300 mg 90 days prior to randomization; or had any clinically significant medical condition that could interfere with the subject's ability to safely participate in the study or be followed.\nDosages. Creatine was administered as 5 g sachets mixed with 8 ounces of liquid taken twice a day and minocycline was administered as 100 mg capsules taken twice a day. Both were taken with meals.\nOutcome measures. […] Disability was assessed by the sight investigator, based on impairment in ambulation, activities in daily living, and occupational status. […] Both the site investigator and medical monitors assessed the potential relationship between SAEs and study drug. […]"}, "[3]": {"set-up": "species or system human", "details": "in vivo", "method": "A two-phase open-label study was conducted to better determine an optimal dose of creatine symptomatic subjects with Huntington's disease. A dose-escalation study (10-40 grams per day) was conducted to determine the maximally tolerated dose (MTD) followed by a de-escalation phase to assess whether brain and serum levels of creatine might be maximal at doses lower than the MTD. Ten subjects were enrolled and followed prospectively for two weeks at each done level increasing in 5-gram increments during dose escalation that lasted 13 weeks. Assessments at each visit included UHDRS, EKG, vital signs, clinical safety and research labs. MRI spectroscopy was conducted prior to baseline at peak done (40 grams) and one month after de-escalation to either 30 or 15 grams daily. To determine an optimal dose, pharmacokinetic as well as clinical data were considered. Once the maximal dose was reached, subjects were assigned one of two lower doses previously taking (15 grams a day (n=5) or 30 grams a day (n=5)). Serum creatine was assessed at baseline, at the end of each 2-week dose escalation step and at the end of the de-escalation phase to assess the correspondence between serum and brain levels of creatine at steady state."}}, "data": [{"smiles": "CN(CC(=O)O)C(=N)N", "note": "[Creatine, creatine monohydrate]", "values": [{"measurement": "Increase in absolute creatine concentration by MRS", "setting": "[1]; frontal cortex", "result": 7.5, "unit": "%"}, {"measurement": "concentration at 16 weeks", "setting": "[1]; human, serum, oral, 8 g/day, week 16, baseline 46.4 (SD=35.7), SD=259.9, read-out: Average serum creatine level", "result": 382, "unit": "µM"}, {"measurement": "concentration at 24 weeks", "setting": "[1]; human, serum, oral, at washout after 8 g/day for 16 weeks, SD=29.5, read-out: Average serum creatine level", "result": 51.8, "unit": "µM"}, {"measurement": "Increase in absolute creatine concentration by MRS", "setting": "[1]; occipital cortex", "result": 13, "unit": "%"}, {"measurement": "Mean (SD) change in total UPDRS", "setting": "[2]; baseline to 12 months or time symptomatic therapy needed, creatine 10 g/day, minocycline 200 mg/day, worst change score imputed", "result": "5.6 (8.69)"}, {"measurement": "Futility analysis outcome", "setting": "[2]; threshold 7.46 (30% less than 10.65 DATATOP historical progression)", "result": "could not be rejected as futile"}, {"measurement": "Dose at which serum creatine levels reached a plateau", "setting": "[3]; human", "result": "30-35 grams/day"}, {"measurement": "Brain levels of creatine in the frontal cortex by MRI spectroscopy", "setting": "[3]", "result": "continued increases"}]}]}
